Measured values reported in patent US8299048B2, “Hexahydrocyclopentyl[f]indazole sulfonamides and derivatives thereof as selective glucocorticoid receptor modulators” (Merck Sharp & Dohme Corp., priority 2008, dated 2012).

The compounds below were run against T1, glucocorticoid receptor (Homo sapiens, UniProt P04150) (assay: Ligand binding assay (GR BIND)).
T1 construct: endogenous in cells
T1 sequence (P04150 1-777): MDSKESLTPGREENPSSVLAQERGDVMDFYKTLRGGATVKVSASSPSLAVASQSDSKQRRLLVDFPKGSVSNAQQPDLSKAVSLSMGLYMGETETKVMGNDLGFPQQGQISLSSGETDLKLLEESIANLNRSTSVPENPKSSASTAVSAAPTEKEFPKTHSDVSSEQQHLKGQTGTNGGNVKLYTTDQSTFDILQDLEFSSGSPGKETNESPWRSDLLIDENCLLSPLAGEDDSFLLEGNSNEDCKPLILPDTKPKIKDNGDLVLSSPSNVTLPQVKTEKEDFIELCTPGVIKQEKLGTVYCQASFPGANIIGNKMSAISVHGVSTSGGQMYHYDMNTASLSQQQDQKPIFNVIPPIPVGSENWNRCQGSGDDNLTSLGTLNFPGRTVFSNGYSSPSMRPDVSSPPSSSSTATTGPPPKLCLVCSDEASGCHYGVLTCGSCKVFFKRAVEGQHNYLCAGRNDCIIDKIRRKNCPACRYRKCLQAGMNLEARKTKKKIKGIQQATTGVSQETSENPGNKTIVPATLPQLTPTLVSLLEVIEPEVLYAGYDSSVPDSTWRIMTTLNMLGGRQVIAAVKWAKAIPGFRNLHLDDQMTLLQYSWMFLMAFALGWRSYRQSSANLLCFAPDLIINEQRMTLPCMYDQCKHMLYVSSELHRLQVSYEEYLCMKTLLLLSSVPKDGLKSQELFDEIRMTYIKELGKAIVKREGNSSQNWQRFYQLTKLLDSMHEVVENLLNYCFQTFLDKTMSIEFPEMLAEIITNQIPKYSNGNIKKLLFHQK
Protocol: • Materials: • Binding Buffer: TEGM (10 mM Tris-HCl, 1 mM EDTA, 10% glycerol, 1 mM beta-mecaptoethanol, 10 mM Sodium Molybdate, pH 7.2) • 50% HAP Slurry: Calbiochem Hydroxylapatite, Fast Flow, in 10 mM Tris, pH 8.0 and 1 mM EDTA. • Wash Buffer: 40 mM Tris, pH7.5, 100 mM KCl, 1 mM EDTA and 1 mM EGTA.
Phenol red-free Trypsin-EDTA is diluted in the same PBS1:10. The cell layers are rinsed with 1× Trypsin, extra Trypsin is poured out, and the cell layers are incubated at 37° C. for ˜2 min. The flask is tapped and checked for signs of cell detachment. Once the cells begin to slide off the flask, the complete media is added. The cells are counted at this point, then diluted to the appropriate concentration and split into flasks or dishes for further culturing (Usually 1:3 to 1:6 dilution).
When the cells are 70 to 85% confluent, they are detached as described above, and collected by centrifuging at 1000 g for 10 minutes at 4° C. The cell pellet is washed twice with TEGM (10 mM Tris-HCl, 1 mM EDTA, 10% glycerol, 1 mM beta-mercaptoethanol, 10 mM Sodium Molybdate, pH 7.2). After the final wash, the cells are resuspended in TEGM at a concentration of 10^7 cells/mL. The cell suspension is snap frozen in liquid nitrogen or ethanol/dry ice bath and transferred to −80° C. freezer on dry ice. Before setting up the binding assay, the frozen samples are left on ice-water to just thaw (˜1 hr). Then the samples are centrifuged at 12,500 g to 20,000 g for 30 min at 4° C. The supernatant is used to set-up assay right away. If using 50 μL of supernatant, the test compound can be prepared in 50 μL of the TEGM buffer.
1×TEGM buffer is prepared, and the isotope-containing assay mixture is prepared in the following order: EtOH (2% final concentration in reaction), 3H-DEX (Amersham Biosciences) and 1×TEGM. [e.g. For 100 samples, 200 μL (100×2) of EtOH+4.25 μL of 1:10 ^3H—Dex stock+2300 μL (100×23) 1×TEGM]. The compound is serially diluted, e.g., if starting final conc. is 1 μM, and the compound is in 25 μL of solution, for duplicate samples, 75 μL of 4×1 μM solution is made and 3 μL of 100 μM is added to 72 μL of buffer, and 1:5 serial dilution.
25 μL of ^3H-DEX (6 nM) trace and 25 μL compound solution are first mixed together, followed by addition of 50 μL receptor solution. The reaction is gently mixed, spun briefly at about 200 rpm and incubated at 4° C. overnight. 100 μL of 50% HAP slurry is prepared and added to the incubated reaction which is then vortexed and incubated on ice for 5 to 10 minutes. The reaction mixture is vortexed twice more to resuspend HAP while incubating reaction. The samples in 96-well format are then washed in wash buffer using The FilterMate™ Universal Harvester plate washer (Packard). The washing process transfers HAP pellet containing ligand-bound expressed receptor to Unifilter-96 GF/B filter plate (Packard). The HAP pellet on the filter plate is incubated with 50 μL of MICROSCINT (Packard) scintillint for 30 minutes before being counted on the TopCount microscintillation counter (Packard). […] are calculated using DEX as a reference.
`C[C@]12Cc3cnn(-c4ccc(F)cc4)c3C=C1CC[C@@H]2CN(CC1CC1)S(=O)(=O)c1cc(C(F)(F)F)ccc1Cl` [Example 5, 2-chloro-N-(cyclopropylmethyl)-N-{[(4αR,5S)-1-(4-fluorophenyl)-4α-methyl-1,4,4α,5,6,7-hexahydrocyclopenta[f]indazol-5-yl]methyl}-5-(trifluoromethyl)benzenesulfonamide] gave a Ki of 1 nM.
With `CC(=O)Nc1ccc(S(=O)(=O)N(CC2CC2)C[C@H]2CCC3=Cc4c(cnn4-c4ccc(F)cc4)C[C@@]32C)cc1` [Example 6, N-{4-[((cyclopropylmethyl){[(4αR,5S)-1-(4-fluorophenyl)-4α-methyl-1,4,4α,5,6,7-hexahydrocyclopenta[f]indazol-5-yl]methyl}amino)sulfonyl]phenyl}acetamide] the Ki was 0.9 nM.
`Cc1nn(C)c(Cl)c1S(=O)(=O)N(CC1CC1)C[C@H]1CCC2=Cc3c(cnn3-c3ccc(F)cc3)C[C@@]21C` [Example 7] showed a Ki of 0.4 nM.
Compound `CN1CCOc2cc(S(=O)(=O)N(CC3CC3)C[C@H]3CCC4=Cc5c(cnn5-c5ccc(F)cc5)C[C@@]43C)ccc21` [Example 8, N-(cyclopropylmethyl)-N-{[(4αR,5S)-1-(4-fluorophenyl)-4α-methyl-1,4,4α,5,6,7-hexahydrocyclopenta[f]indazol-5-yl]methyl}-4-methyl-3,4-dihydro-2H-1,4-benzoxazine-7-sulfonamide] has a Ki of 1.9 nM.
`CCCCCc1ccc(S(=O)(=O)N(CC2CC2)C[C@H]2CCC3=Cc4c(cnn4-c4ccc(F)cc4)C[C@@]32C)cc1` [Example 9, N-(cyclopropylmethyl)-N-{[(4αR,5S)-1-(4-fluorophenyl)-4α-methyl-1,4,4α,5,6,7-hexahydrocyclopenta[f]indazol-5-yl]methyl}-4-pentylbenzenesulfonamide] showed a Ki of 2.2 nM.
In the case of `C[C@]12Cc3cnn(-c4ccc(F)cc4)c3C=C1CC[C@@H]2CN(CC1CC1)S(=O)(=O)c1ccc(-c2ccccc2)cc1` [Example 10, N-(cyclopropylmethyl)-N-{[(4αR,5S)-1-(4-fluorophenyl)-4α-methyl-1,4,4α,5,6,7-hexahydrocyclopenta[f]indazol-5-yl]methyl}biphenyl-4-sulfonamide], the Ki is reported as 0.7 nM.
`Cc1noc(C)c1S(=O)(=O)N(CC1CC1)C[C@H]1CCC2=Cc3c(cnn3-c3ccc(F)cc3)C[C@@]21C` [Example 11, N-(cyclopropylmethyl)-N-{[(4αR,5S)-1-(4-fluorophenyl)-4α-methyl-1,4,4α,5,6,7-hexahydrocyclopenta[f]indazol-5-yl]methyl}-3,5-dimethylisoxazole-4-sulfonamide] showed a Ki of 0.7 nM.
`CCCS(=O)(=O)N(CCOC)C[C@H]1CCC2=Cc3c(cnn3-c3ccc(F)cc3)C[C@@]21C` [Example 95, N-{[(4αR,5S)-1-(4-fluorophenyl)-4α-methyl-1,4,4α,5,6,7-hexahydrocyclopenta[f]indazol-5-yl]methyl}-N-(2-methoxyethyl)propane-1-sulfonamide] showed a Ki of 5.2 nM.
`COCCN(C[C@H]1CCC2=Cc3c(cnn3-c3ccc(F)cc3)C[C@@]21C)S(C)(=O)=O` [Example 96, N-{[(4αR,5S)-1-(4-fluorophenyl)-4α-methyl-1,4,4α,5,6,7-hexahydrocyclopenta[f]indazol-5-yl]methyl}-N-(2-methoxyethyl)methanesulfonamide] gave a Ki of 1.1 nM.
`COCCN(C[C@H]1CCC2=Cc3c(cnn3-c3ccc(F)cc3)C[C@@]21C)S(=O)(=O)CC(F)(F)F` [Example 97, 2,2,2-trifluoro-N-{[(4αR,5S)-1-(4-fluorophenyl)-4α-methyl-1,4,4α,5,6,7-hexahydrocyclopenta[f]indazol-5-yl]methyl}-N-(2-methoxyethyl)ethanesulfonamide] gave a Ki of 0.3 nM.
`Cn1cc(S(=O)(=O)N(CCc2ccccc2F)C[C@H]2CCC3=Cc4c(cnn4-c4ccc(F)cc4)C[C@@]32C)c(C(F)(F)F)n1` [Example 98, N-[2-(2-fluorophenyl)ethyl]-N-{[(4αR,5S)-1-(4-fluorophenyl)-4α-methyl-1,4,4α,5,6,7-hexahydrocyclopenta[f]indazol-5-yl]methyl}-1-methyl-3-(trifluoromethyl)-1H-pyrazole-4-sulfonamide] was tested, and the Ki was 1.5 nM.
Compound `C[C@]12Cc3cnn(-c4ccc(F)cc4)c3C=C1CC[C@@H]2CN(CCc1ccccc1F)S(=O)(=O)c1ccccc1C(F)(F)F` [Example 99, N-[2-(2-fluorophenyl)ethyl]-N-{[(4αR,5S)-1-(4-fluorophenyl)-4α-methyl-1,4,4α,5,6,7-hexahydrocyclopenta[f]indazol-5-yl]methyl}-2-(trifluoromethyl)benzenesulfonamide] has a Ki of 1.4 nM.
In the case of `C[C@]12Cc3cnn(-c4ccc(F)cc4)c3C=C1CC[C@@H]2CN(CCc1ccccc1F)S(=O)(=O)c1ccccc1Cl` [Example 100, 2-chloro-N-[2-(2-fluorophenyl)ethyl]-N-{[(4αR,5S)-1-(4-fluorophenyl)-4α-methyl-1,4,4α,5,6,7-hexahydrocyclopenta[f]indazol-5-yl]methyl}benzenesulfonamide], the Ki is reported as 2.1 nM.
`CCCCS(=O)(=O)N(CCc1ccccc1F)C[C@H]1CCC2=Cc3c(cnn3-c3ccc(F)cc3)C[C@@]21C` [Example 102, N-[2-(2-fluorophenyl)ethyl]-N-{[(4αR,5S)-1-(4-fluorophenyl)-4α-methyl-1,4,4α,5,6,7-hexahydrocyclopenta[f]indazol-5-yl]methyl}butane-1-sulfonamide] gave a Ki of 2.6 nM.
Compound `CC(C)CS(=O)(=O)N(CCc1ccccc1F)C[C@H]1CCC2=Cc3c(cnn3-c3ccc(F)cc3)C[C@@]21C` [Example 103, N-[2-(2-fluorophenyl)ethyl]-N-{[(4αR,5S)-1-(4-fluorophenyl)-4α-methyl-1,4,4α,5,6,7-hexahydrocyclopenta[f]indazol-5-yl]methyl}-2-methylpropane-1-sulfonamide] has a Ki of 1.7 nM.
`CCCCCCCCS(=O)(=O)N(CCc1ccccc1F)C[C@H]1CCC2=Cc3c(cnn3-c3ccc(F)cc3)C[C@@]21C` [Example 104, N-[2-(2-fluorophenyl)ethyl]-N-{[(4αR,5S)-1-(4-fluorophenyl)-4α-methyl-1,4,4α,5,6,7-hexahydrocyclopenta[f]indazol-5-yl]methyl}octane-1-sulfonamide] was tested, and the Ki was 9.8 nM.
For `C[C@]12Cc3cnn(-c4ccc(F)cc4)c3C=C1CC[C@@H]2CN(CCc1ccccc1F)S(=O)(=O)Cc1ccc(Cl)cc1Cl` [Example 105, 1-(2,4-dichlorophenyl)-N-[2-(2-fluorophenyl)ethyl]-N-{[(4αR,5S)-1-(4-fluorophenyl)-4α-methyl-1,4,4α,5,6,7-hexahydrocyclopenta[f]indazol-5-yl]methyl}methanesulfonamide], the Ki was 1.7 nM.
With `C[C@]12Cc3cnn(-c4ccc(F)cc4)c3C=C1CC[C@@H]2CN(CCc1ccccc1F)S(=O)(=O)Cc1cccc(Cl)c1` [Example 106, 1-(3-chlorophenyl)-N-[2-(2-fluorophenyl)ethyl]-N-{[(4αR,5S)-1-(4-fluorophenyl)-4α-methyl-1,4,4α,5,6,7-hexahydrocyclopenta[f]indazol-5-yl]methyl}methanesulfonamide] the Ki was 1.7 nM.
